From ChEMBL document CHEMBL5226357, “Engineering Selectivity for Reduced Toxicity of Bacterial Kinase Inhibitors Using Structure-Guided Medicinal Chemistry” (ACS Med Chem Lett, 2021) come the findings set out here.

≈ marks a conversion by molar mass, not a printed value.

Series [1] can be described thus: Lipophilicity, logD of the compound in octanol and phosphate buffer at pH 7.4 at 66.7 uM by LC-MS/MS analysis. In kind it is physicochemical. To be noted: octanol/water, pH 7.4, 66.7 µM.
The subject of series [2] is THP-1. Briefly: Cytotoxicity against human THP-1 cells assessed as reduction in cell viability incubated for 72 hrs by CellTiter-Glo luminescent assay. In kind it is toxicity, cell-based. To be noted: thp-1, 72 h. On the technique in general: Cellular ATP, detected with luciferase, serves as a proxy for viable cell number.
Series [3] addresses T1, Serine/threonine-protein kinase PknB (Mycobacterium tuberculosis, UniProt P9WI81).
T1 sequence (P9WI81 whole entry): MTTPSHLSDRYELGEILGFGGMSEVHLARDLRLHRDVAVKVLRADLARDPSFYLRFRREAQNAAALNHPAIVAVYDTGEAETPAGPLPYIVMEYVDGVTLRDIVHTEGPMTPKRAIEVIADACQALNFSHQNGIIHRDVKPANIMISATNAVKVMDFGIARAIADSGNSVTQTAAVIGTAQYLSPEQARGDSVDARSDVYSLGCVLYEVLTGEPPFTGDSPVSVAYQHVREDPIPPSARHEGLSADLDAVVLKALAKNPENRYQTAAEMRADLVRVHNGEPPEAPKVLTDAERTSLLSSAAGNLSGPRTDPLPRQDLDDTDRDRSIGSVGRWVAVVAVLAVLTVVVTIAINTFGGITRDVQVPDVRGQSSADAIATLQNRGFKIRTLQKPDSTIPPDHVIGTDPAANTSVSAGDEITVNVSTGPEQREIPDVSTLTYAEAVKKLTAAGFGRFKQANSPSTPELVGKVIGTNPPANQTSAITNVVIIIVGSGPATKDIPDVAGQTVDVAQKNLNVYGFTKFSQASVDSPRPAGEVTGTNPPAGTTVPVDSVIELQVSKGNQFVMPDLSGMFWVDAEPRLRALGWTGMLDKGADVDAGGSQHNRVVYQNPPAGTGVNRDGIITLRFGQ
In words: Binding affinity to Mycobacterium tuberculosis partial length PknB (M1 to G279 residues) expressed in mammalian expression system by KdELECT kinase assay.

The target of series [4] is T1, Serine/threonine-protein kinase PknB. Briefly: Binding affinity to Mycobacterium tuberculosis recombinant N-terminal His-tagged PknB (1 to 331 residues) expressed in Escherichia coli DH5alpha cells by microscale thermophoresis analysis. In general terms: MST reads how a fluorescent partner responds to local heating, with and without ligand.
Series [5] concerns the target Serine/threonine-protein kinase mTOR (Homo sapiens, UniProt P42345). Briefly: Binding affinity to human partial length mTOR (L1382 to W2549 residues) expressed in mammalian expression system by KdELECT kinase assay. It is filed as toxicity.
The target of series [6] is Glycogen synthase kinase-3 beta (Homo sapiens, UniProt P49841). In words: Binding affinity to human full length GSK-3 beta (M1 to T433 residues) expressed in mammalian expression system by KdELECT kinase assay. It is filed as toxicity.
The target in series [7] is Cyclin-dependent kinase 2/cyclin A (Homo sapiens, UniProt P24941). In words: Inhibition of human Cdk2/Cyclin A using Myelin basic protein as substrate by ATP competitive assay. In kind it is toxicity.
For series [8], the target named is T1, Serine/threonine-protein kinase PknB. In words: Inhibition of Mycobacterium tuberculosis recombinant PknB (1 to 331 residues) expressed in Escherichia coli BL21-Rosetta cells using GarA and ATP as substrate preincubated with enzyme for 10 mins followed by substrate addition and measured after 1 hr by ATP-competitive biochemical assay.
Series [9] addresses Serine/threonine-protein kinase pim-1 (Homo sapiens, UniProt P11309). Briefly: Binding affinity to human partial length Pim1 (A15 to K313 residues ) expressed in bacterial expression system by KdELECT kinase assay. It is filed as toxicity.
For series [10], the system named is Mycobacterium tuberculosis. In words: Antimycobacterial activity against Mycobacterium tuberculosis H37Ra ATCC 25177 assessed as inhibition of bacterial growth incubated for 12 days by Alamar Blue based fluorescence analysis. It is filed as functional. To be noted: H37Ra ATCC 25177, 288 h, time 12 day. (In general: Alamar Blue is a resazurin reagent that responds to reducing activity.)

The nature of series [11]: Toxicity against Zebrafish embryo assessed as embryo survival at 5 uM incubated for 5 days and measured daily. To be noted: zebrafish embryos, time 5 day. Set-up: species or system Danio rerio.
Series [12] has as its target CDK4/Cyclin D3 (Homo sapiens, UniProt P11802). In words: Binding affinity to human full length CDK4 (M1 to E303 residues) expressed in mammalian expression system/CyclinD3 by KdELECT kinase assay. In kind it is toxicity.
Series [13] in a line: Selectivity ratio of Kd for human partial length Pim1 (A15 to K313 residues ) expressed in bacterial expression system to Kd for Mycobacterium tuberculosis partial length PknB (M1 to G279 residues) expressed in mammalian expression system.
A short description of series [14]: Selectivity ratio of Kd for human partial length mTOR (L1382 to W2549 residues) expressed in mammalian expression system to Kd for Mycobacterium tuberculosis partial length PknB (M1 to G279 residues) expressed in mammalian expression system.
The nature of series [15]: Selectivity ratio of Kd for human full length GSK-3 beta (M1 to T433 residues) expressed in mammalian expression system to Kd for Mycobacterium tuberculosis partial length PknB (M1 to G279 residues) expressed in mammalian expression system.
The nature of series [16]: Selectivity ratio of Kd for human full length CDK4 (M1 to E303 residues) expressed in mammalian expression system/CyclinD3 to Kd for Mycobacterium tuberculosis partial length PknB (M1 to G279 residues) expressed in mammalian expression system.

For `CN1CCN(c2ccc(Nc3nccc(-c4ccnc(Cl)c4)n3)cc2C(F)(F)F)CC1`, in series [1], the logD came out at 4.3. In addition, in series [2], the CC50 was 1140 nM. For the same compound, the Kd in series [3] is 47 nM; in series [4], 48 nM; in series [5], 690 nM; in series [6], 2600 nM; in series [9], 2200 nM; in [12], 440 nM. The IC50 in series [7] is 7200 nM; in series [8], 1100 nM. Besides, the Ki in series [8] amounted to 290 nM. Moreover, in series [10], the MIC was determined as 25 µM (≈ 11.2 µg/mL). Also, the survival at 120 h, 5 µM in series [11] was 89%.
In turn, `CN1CCN(c2ccc(Nc3nccc(-c4cccnc4)n3)cc2C(F)(F)F)CC1` registered a logD in series [1] of 3.53. Besides, the CC50 in series [2] is 1060 nM. In addition, the Kd in [4] was 61 nM. Moreover, the IC50 in [7] came to 9300 nM; in series [8] it was 1700 nM. For the same compound, the Ki in series [8] was determined as 470 nM. For the same compound, the minimum inhibitory concentration (MIC) in [10] turned out to be 100 µM (≈ 41.4 µg/mL). The survival at 120 h, 5 µM in series [11] came to 56%.
Take `CN1CCN(c2ccc(Nc3nccc(-c4ccc(Cl)cc4)n3)cc2C(F)(F)F)CC1`: the Kd in series [4] is 2200 nM. The same compound gave an IC50 in series [7] of over 40000 nM. In series [8], the IC50 was 8100 nM and the Ki was found to be 2400 nM.
Regarding `CN1CCN(c2ccc(Nc3nccc(-c4cccc([N+](=O)[O-])c4)n3)cc2C(F)(F)F)CC1`, the Selectivity ratio is over 100 in series [13], over 100 in [14], over 100 in series [15] and 48 in [16]. Besides, in [1], the logD is given as 4.5. In addition, in [2], the CC50 was 3890 nM. The Kd in [3] was 19 nM; in [4], 34 nM; in series [5], 5800 nM; in series [6], 3800 nM; in series [9] it was 2200 nM; in series [12], 910 nM. For the same compound, the IC50 in series [7] is over 40000 nM; in [8], 1200 nM. The Ki in series [8] stood at 320 nM. The MIC in [10] turned out to be 19 µM (≈ 8.71 µg/mL). In addition, the survival at 120 h, 5 µM in [11] is 0%.
`CN1CCN(c2ccc(Nc3nccc(-c4ccc5ccccc5c4)n3)cc2C(F)(F)F)CC1` returned a logD in series [1] of over 5.7. Also, the CC50 in series [2] was 3040 nM. For the same compound, in [4], the equilibrium dissociation constant (Kd) stood at 430 nM. In series [7], this compound registered an IC50 of over 40000 nM. Besides, in series [8], the IC50 was found to be 3400 nM and the Ki was determined as 970 nM. Further, in [10], the MIC turned out to be 6 µM (≈ 2.78 µg/mL). For the same compound, the survival at 120 h, 5 µM in [11] stood at 100%.
In the case of `CN1CCN(c2ccc(Nc3nccc(-c4ccnc(NCc5ccccc5)c4)n3)cc2C(F)(F)F)CC1`, in series [4], the Kd amounted to 2100 nM. Moreover, the IC50 was found to be 7300 nM in [7] and 7900 nM in series [8]. Also, the Ki in series [8] amounted to 2300 nM.
In series [1], `Cc1ccc(-c2ccnc(Nc3ccc(N4CCN(C)CC4)c(C(F)(F)F)c3)n2)cc1` had a logD of over 5.85. Further, the CC50 in [2] amounted to 4940 nM. Further, the Kd in series [4] was found to be 30 nM. This compound also showed an IC50 in series [7] of over 40000 nM. For the same compound, in [8], the IC50 is 1600 nM and the Ki turned out to be 440 nM. Besides, in series [10], the MIC was found to be 12 µM (≈ 5.13 µg/mL). Also, the survival at 120 h, 5 µM in series [11] is 0%.
Consider `COc1cccc(-c2ccnc(Nc3ccc(N4CCN(C)CC4)c(C(F)(F)F)c3)n2)c1`, for which the Kd in series [4] was 660 nM. The same compound had an IC50 in series [7] of 10000 nM. Besides, in [8], the IC50 was found to be 6600 nM and the Ki turned out to be 1900 nM.
For the compound `CN1CCN(c2ccc(Nc3nccc(-c4ccccc4)n3)cc2C(F)(F)F)CC1`, in [1], the logD turned out to be 4.8. Moreover, in [2], the 50% cytotoxic concentration (CC50) is 4100 nM. The Kd in series [3] was 430 nM; in series [4], 1200 nM; in series [5], over 10000 nM; in series [6], 2800 nM; in series [9], 5200 nM; in series [12] it was 1200 nM. The figures for the IC50 in series [7] and in series [8] were over 40000 nM and 4600 nM, respectively. Further, the Ki in series [8] was found to be 1300 nM. Besides, in series [10], the MIC worked out at 25 µM (≈ 10.3 µg/mL). In [11], the survival at 120 h, 5 µM is 96%.
Regarding `CN1CCN(c2ccc(Nc3nccc(-c4cccc(C#N)c4)n3)cc2C(F)(F)F)CC1`, in [4], the Kd was 73 nM. The IC50 was over 40000 nM in series [7] and 2500 nM in series [8]. For the same compound, the Ki in series [8] was 700 nM.
As to `CN1CCN(c2ccc(Nc3nccc(-c4ccc(C#N)cc4)n3)cc2C(F)(F)F)CC1`, the Kd in [4] came out at 700 nM. The 50% inhibitory concentration (IC50) in series [7] was found to be 13000 nM. In addition, in series [8], the IC50 came out at 5100 nM and the Ki is 1500 nM.
In series [1], `CN1CCN(c2ccc(Nc3nccc(-c4cccc(Cl)c4)n3)cc2C(F)(F)F)CC1` showed a logD of over 6. Besides, the CC50 in series [2] was determined as 5280 nM. For the same compound, the Kd in [3] was 180 nM; in series [4], 340 nM; in series [5], over 10000 nM; in series [6], 9300 nM; in series [9] it was over 10000 nM; in series [12], 3000 nM. For the same compound, the results for the IC50 in [7] and in series [8] were over 40000 nM and 4300 nM, respectively. Moreover, the Ki in [8] was found to be 1200 nM. For the same compound, in [10], the MIC was 12 µM (≈ 5.37 µg/mL). The survival at 120 h, 5 µM in [11] came out at 57%.
Regarding `CN1CCN(c2ccc(Nc3nccc(-c4ccc([N+](=O)[O-])cc4)n3)cc2C(F)(F)F)CC1`, the Kd in [4] stood at 410 nM. Further, the IC50 in series [7] stood at 180 nM. In series [8], the IC50 turned out to be 3800 nM and the Ki amounted to 1100 nM.
Regarding `CNc1cc(-c2ccnc(Nc3ccc(N4CCN(C)CC4)c(C(F)(F)F)c3)n2)ccn1`, the Kd in series [4] stood at 920 nM. In addition, the IC50 in series [7] stood at 39000 nM. Moreover, in [8], the IC50 turned out to be 9400 nM and the Ki came to 2700 nM.
As to `CN1CCN(c2ccc(Nc3nccc(-c4cccc(F)c4)n3)cc2C(F)(F)F)CC1`, in series [4], the Kd worked out at 710 nM. In [7], this compound returned an IC50 of 24000 nM. In series [8], the half-maximal inhibitory concentration (IC50) turned out to be 6100 nM and the Ki was 1800 nM.
On to `CN1CCN(c2ccc(Nc3nccc(-c4ccc(F)cc4)n3)cc2C(F)(F)F)CC1`, for which the Kd in [4] was 3000 nM. Further, the IC50 in series [7] was 12000 nM. Moreover, in series [8], the IC50 was over 40000 nM and the inhibitory constant (Ki) was over 12000 nM.

A word on the logD: it is lipophilicity at a set pH, counting ionised and neutral species. Low readings indicate a more hydrophilic compound, high ones a more lipophilic compound. The CC50 is the concentration at which the toxic effect on the cells reaches its halfway point. One may read the Kd as the equilibrium constant for the complex coming apart. The IC50 is the concentration at which inhibition is half-maximal. The Ki is a measure of affinity in units of concentration, obtained from inhibition or displacement. For orientation: MIC means the lowest concentration that inhibits growth of the organism.
